In patent publication US6720346B2, “Thiazole benzamide derivatives and pharmaceutical compositions for inhibiting cell proliferation” (Agouron Pharmaceuticals, Inc., priority 2001, dated 2004):

Experiments:
CDK2/cyclin A = molecular target: T1, CDK2/cyclin A (Homo sapiens, UniProt P24941); assay: Inhibition of CDK2/cyclin A retinoblastoma kinase activity (Ki; % inhibition); assay type: biochemical; settings: for Ki: apparent Ki, CDK2/cyclin A, Rb substrate
T1 construct: made in house; host or cells: CDK2: insect cells (baculovirus); cyclin A: E. coli
Method in brief: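 Radiometric filter assay of CDK2/proteolyzed cyclin A (baculovirus-expressed human CDK2, 10 or 19 nM) phosphorylating an Rb fragment with 25 μM [³²P/³³P]ATP in pH 7.4 HEPES, 2% DMSO, at 30 °C for 60 or 75 min under initial-rate conditions. Library compounds screened at 30 nM for % inhibition; apparent Ki from concentration series fit to competitive or tight-binding inhibition equations.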

human CDK4/cyclin D3 = molecular target: T2, human CDK4/cyclin D3 (Homo sapiens, UniProt P11802); assay: Inhibition of CDK4/cyclin D retinoblastoma kinase activity (Ki; % inhibition); assay type: biochemical; settings: for Ki: apparent Ki, CDK4/cyclin D3, Rb substrate
T2 construct: made in house; host or cells: insect cells co-infected with baculovirus vectors
Method in brief: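 Insect-cell-expressed CDK4 with truncated cyclin D3 (1-264), 5 nM, phosphorylating His-tagged Rb fragment (386-928) with 25 μM [32/33P]ATP at pH 7.4, 30 °C, 20 min (60 min for tight binders). Filter capture, phosphorimager read; % inhibition at 30 nM compound, Ki from competitive or tight-binding fits.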

HCT-116 cell line = assay: Inhibition of cell growth, MTT tetrazolium salt assay; assay type: cell-based; settings: for IC50: Homo sapiens, HCT-116, 120 h, MTT, three to five days
Method in brief: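 Growth inhibition was read as MTT-formazan absorbance at 540 nm, after 4 h with 0.2 mg/mL MTT. Before that, HCT-116 cells had been exposed 3–5 days at 37 °C to compounds in 0.5% (v/v) DMSO, added 4 h after plating. 50% and 90% inhibitory concentrations were taken from semi-log concentration–inhibition plots versus vehicle controls.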

[1] = HCT-116 cells, 0.25 μM compound

T2 sequence (P11802 whole entry): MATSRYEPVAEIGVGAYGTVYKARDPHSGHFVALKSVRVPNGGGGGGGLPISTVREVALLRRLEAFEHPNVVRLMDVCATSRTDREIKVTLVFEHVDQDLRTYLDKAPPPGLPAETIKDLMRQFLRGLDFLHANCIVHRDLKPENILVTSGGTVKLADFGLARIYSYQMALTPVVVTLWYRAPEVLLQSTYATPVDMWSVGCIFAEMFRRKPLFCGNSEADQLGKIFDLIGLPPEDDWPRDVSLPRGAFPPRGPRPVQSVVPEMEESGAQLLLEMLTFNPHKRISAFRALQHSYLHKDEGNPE
T2 sequence (P30281 1-264 partner limits assumed): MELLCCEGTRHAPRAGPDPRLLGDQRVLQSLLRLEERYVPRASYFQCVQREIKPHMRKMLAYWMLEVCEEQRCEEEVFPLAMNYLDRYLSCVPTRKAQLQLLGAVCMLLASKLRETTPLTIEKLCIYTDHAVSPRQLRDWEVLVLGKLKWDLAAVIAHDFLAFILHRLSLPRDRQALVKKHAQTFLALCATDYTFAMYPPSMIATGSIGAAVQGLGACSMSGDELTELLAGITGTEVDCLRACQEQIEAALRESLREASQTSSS

CDK2 % Inhibition at 0.03 μM (CDK2/cyclin A; at 0.03 μM) [%] | CDK4 % Inhibition at 0.03 μM (human CDK4/cyclin D3; at 0.03 μM) [%] | CDK2 % Inhibition at 0.03 μM (CDK2/cyclin A; 0.03 μM compound) [%] | CDK4 % Inhibition at 0.03 μM (human CDK4/cyclin D3; 0.03 μM compound) [%] | Structure (SMILES) | HCT-116 % Inhibition at 0.1 μM (HCT-116 cell line; HCT-116, at 0.1 μM) [%] | HCT-116 % Inhibition at 0.25 μM (HCT-116 cell line; HCT-116, at 0.25 μM) [%] | HCT-116 % Inhibition at 0.1 μM (HCT-116 cell line; HCT-116 cells, 0.1 μM compound) [%] | HCT-116 % Inhibition at 0.25 μM (HCT-116 cell line; [1]) [%] | other results
16 | 7 |  |  | CCC(NC(=O)c1ccc(Nc2nc(N)c(C(=O)c3c(F)cccc3F)s2)cc1)c1ccccc1 (stereo not shown) [Example G151] | 27 | 94 |  |  | 
 |  | 23 | 32 | Nc1nc(Nc2ccc(C(=O)NCc3cccc(C(F)(F)F)c3)cc2)sc1C(=O)c1c(F)cccc1F [Example G293] |  |  | 10 | 56 | 
 |  | 27 | 19 | Cc1ccc(CNC(=O)c2ccc(Nc3nc(N)c(C(=O)c4c(F)cccc4F)s3)cc2)cc1Cl [Example G275] |  |  | 25 | 63 | 
 |  | −6 | 10 | CCSCCNC(=O)c1ccc(Nc2nc(N)c(C(=O)c3c(F)cccc3F)s2)cc1 [Example G283] |  |  | 16 | 75 | 
 |  | 23 | 23 | Nc1nc(Nc2ccc(C(=O)NCCc3ccc(Cl)c(Cl)c3)cc2)sc1C(=O)c1c(F)cccc1F [Example G211] |  |  | 13 | 45 | 
18 | 30 |  |  | CCN(CC)CCNC(=O)c1ccc(Nc2nc(N)c(C(=O)c3c(F)cccc3F)s2)cc1 [Example G157] | 0 | 87 |  |  | 
 |  | 1 | −7 | Nc1nc(Nc2ccc(C(=O)NCC(O)c3ccccc3)cc2)sc1C(=O)c1c(F)cccc1F (stereo not shown) [Example G391] |  |  | 11 | 50 | 
 |  | 18 | 27 | COc1ccc(NC(=O)c2ccc(Nc3nc(N)c(C(=O)c4c(F)cccc4F)s3)cc2)cn1 [Example G215] |  |  | 22 | 73 | 
4 | 5 |  |  | Nc1nc(Nc2ccc(C(=O)Nc3ccccc3)cc2)sc1C(=O)c1c(F)cccc1F [Example G7] |  | 80 |  |  | 
 |  | −11 | 2 | Nc1nc(Nc2ccc(C(=O)NCCc3ccncc3)cc2)sc1C(=O)c1c(F)cccc1F [Example G268] |  |  | 26 | 63 | 
22 | 4 |  |  | C[C@@H](NC(=O)c1ccc(Nc2nc(N)c(C(=O)c3c(F)cccc3F)s2)cc1)c1ccccc1 [Example G166] | 8 | 90 |  |  | 
10 | 23 |  |  | Nc1nc(Nc2ccc(C(=O)NCCc3ccccc3Cl)cc2)sc1C(=O)c1c(F)cccc1F [Example G177] | 24 | 45 |  |  | 
 |  | 8 | 0 | Cc1cc(NC(=O)c2ccc(Nc3nc(N)c(C(=O)c4c(F)cccc4F)s3)cc2)no1 [Example G393] |  |  | 8 | 46 | 

More lines, now with the values behind:

Structure (SMILES) | CDK2 % Inhibition at 0.03 μM (CDK2/cyclin A; at 0.03 μM) [%] | CDK4 % Inhibition at 0.03 μM (human CDK4/cyclin D3; at 0.03 μM) [%] | CDK2 % Inhibition at 0.03 μM (CDK2/cyclin A; 0.03 μM compound) [%] | CDK4 % Inhibition at 0.03 μM (human CDK4/cyclin D3; 0.03 μM compound) [%] | HCT-116 % Inhibition at 0.1 μM (HCT-116 cell line; HCT-116, at 0.1 μM) [%] | HCT-116 % Inhibition at 0.25 μM (HCT-116 cell line; HCT-116, at 0.25 μM) [%] | HCT-116 % Inhibition at 0.1 μM (HCT-116 cell line; HCT-116 cells, 0.1 μM compound) [%] | HCT-116 % Inhibition at 0.25 μM (HCT-116 cell line; [1]) [%] | other results
CN(CC1OCCO1)C(=O)c1ccc(Nc2nc(N)c(C(=O)c3c(F)cccc3F)s2)cc1 [Example G42] | 10 | 7 |  |  |  | 54 |  |  | 
Cc1cc(F)c(C(=O)c2sc(Nc3ccc(C(=O)NC[C@@H]4CCCN4C)cc3)nc2N)c(F)c1 [Example A68, 4-{4-Amino-5-(2,6-difluoro-4-methyl-benzoyl)-thiazol-2-ylamino}-N-(1-methyl-pyrrolidin-2S-ylmethyl)-benzamide] |  |  |  |  |  |  |  |  | Ki (CDK2/cyclin A): 8.5 nM; Ki (human CDK4/cyclin D3): 45 nM; IC50 (HCT-116 cell line): 75 nM
CCC(CO)NC(=O)c1ccc(Nc2nc(N)c(C(=O)c3c(F)cccc3F)s2)cc1 (stereo not shown) [Example G183] | 23 | 38 |  |  |  |  |  |  | HCT-116 % Inhibition at 0.1 μM (HCT-116 cell line; HCT-116, at 0.1 μM, 0.1 µM): 11%; HCT-116 % Inhibition at 0.25 μM (HCT-116 cell line; HCT-116, at 0.25 μM, 0.25 µM): 48%
COc1ccc(C)c(NC(=O)c2ccc(Nc3nc(N)c(C(=O)c4c(F)cccc4F)s3)cc2)c1 [Example A19, 4-[4-Amino-5-(2,6-difluoro-benzoyl)-thiazol-2-ylamino]-N-(5-methoxy-2-methyl-phenyl)-benzamide] |  |  |  |  |  |  |  |  | Ki (CDK2/cyclin A): 64 nM; Ki (human CDK4/cyclin D3): 105 nM; IC50 (HCT-116 cell line): 110 nM
CN(CCc1ccccn1)C(=O)c1ccc(Nc2nc(N)c(C(=O)c3c(F)cccc3F)s2)cc1 [Example G71] | 3 | 16 |  |  |  | 59 |  |  | 
CC(=O)Nc1ccccc1C(=O)c1sc(Nc2ccc(C(=O)NC[C@@H]3CCCN3C)cc2)nc1N [Example A72, 4-{5-(2-Acetylamino-benzoyl)-4-amino-thiazol-2-ylamino}-N-(1-methyl-pyrrolidin-2S-ylmethyl)-benzamide] |  |  |  |  |  |  |  |  | inhibition at 1 µM (CDK2/cyclin A): 0%; inhibition at 1 µM (human CDK4/cyclin D3): 0%; IC50 (HCT-116 cell line): > 500 nM
CCN(CCCCO)C(=O)c1ccc(Nc2nc(N)c(C(=O)c3c(F)cccc3F)s2)cc1 [Example G385] |  |  | 1 | −1 |  |  | 28 | 50 | 
CN(C)CCN1CCN(C(=O)c2ccc(Nc3nc(N)c(C(=O)c4c(F)cccc4F)s3)cc2)CC1 [Example G382] |  |  | −17 | 8 |  |  | 17 | 47 | 
N#CCCN(CC1CCCO1)C(=O)c1ccc(Nc2nc(N)c(C(=O)c3c(F)cccc3F)s2)cc1 (stereo not shown) [Example G179] | −5 | 10 |  |  | 21 | 42 |  |  | 
NC(=O)C1CCCN(C(=O)c2ccc(Nc3nc(N)c(C(=O)c4c(F)cccc4F)s3)cc2)C1 (stereo not shown) [Example G41] | 11 | 10 |  |  |  | 50 |  |  | 
CN1CCCC1CCNC(=O)c1ccc(Nc2nc(N)c(C(=O)c3c(F)cccc3F)s2)cc1 (stereo not shown) [Example G147] | 10 | 35 |  |  | 0 | 65 |  |  | 
Nc1nc(Nc2ccc(C(=O)N3CCC(Cc4ccccc4)CC3)cc2)sc1C(=O)c1c(F)cccc1F [Example G194] | 1 | 19 |  |  | 20 | 49 |  |  | 
CCCCN(Cc1ccccc1)C(=O)c1ccc(Nc2nc(N)c(C(=O)c3c(F)cccc3F)s2)cc1 [Example G306] |  |  | −17 | 0 |  |  | 9 | 44 | 
CCCN(CCC#N)C(=O)c1ccc(Nc2nc(N)c(C(=O)c3c(F)cccc3F)s2)cc1 [Example G364] |  |  | −12 | 9 |  |  | 20 | 40 | 
N#CCCN(Cc1ccccc1)C(=O)c1ccc(Nc2nc(N)c(C(=O)c3c(F)cccc3F)s2)cc1 [Example G304] |  |  | 0 | 20 |  |  | 15 | 54 | 
CC(C)C(CO)NC(=O)c1ccc(Nc2nc(N)c(C(=O)c3c(F)cccc3F)s2)cc1 (stereo not shown) [Example G102] | −3 | 18 |  |  | 18 | 55 |  |  | 
CC[C@H](C)[C@@H](CO)NC(=O)c1ccc(Nc2nc(N)c(C(=O)c3c(F)cccc3F)s2)cc1 [Example G327] |  |  | −7 | 11 |  |  | 8 | 55 | 
CN(CC(O)CO)C(=O)c1ccc(Nc2nc(N)c(C(=O)c3c(F)cccc3F)s2)cc1 (stereo not shown) [Example G174] | 0 | 15 |  |  | 28 | 56 |  |  | 
CCOC(=O)/C=C/c1ccc(NC(=O)c2ccc(Nc3nc(N)c(C(=O)c4c(F)cccc4F)s3)cc2)cc1 [Example G114] | −3 | 11 |  |  | 0 | 48 |  |  | 
NC(=O)CNC(=O)c1ccc(Nc2nc(N)c(C(=O)c3c(Cl)cccc3Cl)s2)cc1 [Example B1, 4-[4-Amino-5-(2,6-dichloro-benzoyl)-thiazol-2-ylamino]-N-carbamoylmethyl-benzamide] |  |  |  |  |  |  |  |  | Ki (CDK2/cyclin A): 65 nM; Ki (human CDK4/cyclin D3): 17 nM; IC50 (HCT-116 cell line): 18000 nM
